These are literature values, as cited in paper PMC12260505, “First-in-Human Phase I/IIa Study of the First-in-Class CDK2/4/6 Inhibitor PF-06873600 Alone or with Endocrine Therapy in Patients with Breast Cancer” (Clinical Cancer Research, 2025).

The subject of this series is HR+/HER2− mBC, post-ET patient population. The conditions noted are these: palbociclib and fulvestrant, PALOMA3; cited from earlier work.

In the case of `CC(=O)c1c(C)c2cnc(Nc3ccc(N4CCNCC4)cn3)nc2n(C2CCCC2)c1=O` [palbociclib], the “Median PFS” value is reported as 9.5 months and the ORR was 24.6%.
